Measured values as given in patent publication US12071408B2, “Multi-targeted tyrosine kinase inhibitors effective in antitumor uses” (Shanghai AB PharmaTech Ltd., priority 2021, dated 2024).

Key:
[1] = system: hepatocellular carcinoma cell line (Hep3B 2.1-7); experiment: Tumor cell proliferation inhibition (CTG, 72 h); format: cell-based; settings: Homo sapiens; Hep3B 2.1-7 cells, class; read-out: Hep3B 2.1-7 range of activity (IC50)
[2] = system: bladder cancer cell line (RT112/84); experiment: Tumor cell proliferation inhibition (CTG, 72 h); format: cell-based; settings: Homo sapiens; RT112/84 cells, class; read-out: RT112/84 range of activity (IC50)
[3] = system: thyroid cancer cell line (TT); experiment: Tumor cell proliferation inhibition (CTG, 72 h); format: cell-based; settings: Homo sapiens; TT cells, class; read-out: TT range of activity (IC50)
[4] = system: cervical cancer cell line (Hela); experiment: Tumor cell proliferation inhibition (CTG, 72 h); format: cell-based; settings: Homo sapiens; Hela cells, class; read-out: Hela activity effect range (IC50)
[5] = system: leukemia cell line (K562); experiment: Tumor cell proliferation inhibition (CTG, 72 h); format: cell-based; settings: Homo sapiens; K562 cells, class; read-out: K562 activity effect range (IC50)
VEGFR-2 (KDR) = VEGFR-2 (KDR) (Homo sapiens (Human), UniProt P35968); experiment: Kinase inhibition, Mobility-Shift Assay; format: biochemical; settings: class; read-out: KDR activity effect range (IC50)
Chain of VEGFR-2 (KDR) (P35968 20-1356): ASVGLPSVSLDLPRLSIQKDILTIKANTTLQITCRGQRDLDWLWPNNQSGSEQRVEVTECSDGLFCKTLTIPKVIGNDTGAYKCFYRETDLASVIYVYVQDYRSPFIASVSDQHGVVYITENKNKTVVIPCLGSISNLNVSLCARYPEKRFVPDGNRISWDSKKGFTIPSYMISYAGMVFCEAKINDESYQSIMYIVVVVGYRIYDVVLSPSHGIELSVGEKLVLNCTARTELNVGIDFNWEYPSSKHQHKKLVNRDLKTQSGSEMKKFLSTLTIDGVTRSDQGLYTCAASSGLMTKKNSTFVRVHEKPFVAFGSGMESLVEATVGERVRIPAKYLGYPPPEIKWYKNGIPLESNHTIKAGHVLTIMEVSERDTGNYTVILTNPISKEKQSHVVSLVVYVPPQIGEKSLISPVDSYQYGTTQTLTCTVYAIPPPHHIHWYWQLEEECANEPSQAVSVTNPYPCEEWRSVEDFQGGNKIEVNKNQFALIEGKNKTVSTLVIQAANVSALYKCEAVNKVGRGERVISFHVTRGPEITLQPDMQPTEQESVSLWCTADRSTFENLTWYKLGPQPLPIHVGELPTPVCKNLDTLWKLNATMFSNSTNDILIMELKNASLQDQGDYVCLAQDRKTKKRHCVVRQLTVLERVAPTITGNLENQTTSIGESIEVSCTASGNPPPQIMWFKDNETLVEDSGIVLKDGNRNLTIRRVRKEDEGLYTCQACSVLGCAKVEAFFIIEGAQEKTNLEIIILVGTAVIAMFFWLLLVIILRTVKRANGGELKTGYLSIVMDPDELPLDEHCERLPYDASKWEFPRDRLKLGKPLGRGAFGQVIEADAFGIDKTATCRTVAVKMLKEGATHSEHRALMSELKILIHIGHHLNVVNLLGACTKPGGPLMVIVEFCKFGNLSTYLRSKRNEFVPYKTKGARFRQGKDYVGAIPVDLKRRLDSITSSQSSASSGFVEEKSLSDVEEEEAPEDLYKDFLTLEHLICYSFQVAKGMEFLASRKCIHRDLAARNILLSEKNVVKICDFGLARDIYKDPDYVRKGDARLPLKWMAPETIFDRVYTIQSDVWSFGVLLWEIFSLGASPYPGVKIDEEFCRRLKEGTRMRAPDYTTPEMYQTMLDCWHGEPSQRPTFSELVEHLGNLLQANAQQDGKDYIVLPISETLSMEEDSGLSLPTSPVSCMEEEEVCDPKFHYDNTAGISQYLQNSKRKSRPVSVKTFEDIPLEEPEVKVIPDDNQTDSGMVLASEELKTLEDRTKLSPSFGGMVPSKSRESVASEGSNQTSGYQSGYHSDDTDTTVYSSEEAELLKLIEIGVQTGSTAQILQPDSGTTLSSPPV

FGFR2 = FGFR2 (Homo sapiens (Human), UniProt P21802); experiment: Kinase inhibition, Mobility-Shift Assay; format: biochemical; settings: class; read-out: FGFR2 range of activity effects (IC50)
Chain of FGFR2 (P21802 22-821): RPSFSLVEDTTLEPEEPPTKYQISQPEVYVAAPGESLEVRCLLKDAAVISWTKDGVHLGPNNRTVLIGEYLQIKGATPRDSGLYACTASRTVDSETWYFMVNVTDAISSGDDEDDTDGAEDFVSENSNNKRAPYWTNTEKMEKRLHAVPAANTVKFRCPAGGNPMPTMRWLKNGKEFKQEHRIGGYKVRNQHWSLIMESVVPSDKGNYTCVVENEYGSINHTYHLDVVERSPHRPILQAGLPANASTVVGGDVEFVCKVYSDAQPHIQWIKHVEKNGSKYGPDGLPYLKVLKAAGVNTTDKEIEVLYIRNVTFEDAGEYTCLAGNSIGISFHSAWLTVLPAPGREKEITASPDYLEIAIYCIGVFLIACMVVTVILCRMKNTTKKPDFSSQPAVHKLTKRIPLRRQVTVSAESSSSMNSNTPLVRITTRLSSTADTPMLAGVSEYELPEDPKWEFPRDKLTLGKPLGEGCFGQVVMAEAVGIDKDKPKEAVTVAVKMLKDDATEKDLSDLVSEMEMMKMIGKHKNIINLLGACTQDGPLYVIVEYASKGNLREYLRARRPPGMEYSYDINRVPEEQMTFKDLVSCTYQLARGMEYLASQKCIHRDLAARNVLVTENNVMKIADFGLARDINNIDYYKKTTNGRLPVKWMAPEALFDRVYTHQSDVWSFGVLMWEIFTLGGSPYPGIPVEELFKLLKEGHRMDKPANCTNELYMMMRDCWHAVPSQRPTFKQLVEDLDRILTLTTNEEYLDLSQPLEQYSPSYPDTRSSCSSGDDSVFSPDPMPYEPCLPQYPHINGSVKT

FGFR4 = FGFR4 (Homo sapiens (Human), UniProt P22455); experiment: Kinase inhibition, Mobility-Shift Assay; format: biochemical; settings: class; read-out: FGFR4 range of activity effects (IC50)
EGFR = EGFR (Homo sapiens (Human), UniProt P00533); experiment: Kinase inhibition, Mobility-Shift Assay; format: biochemical; settings: class; read-out: EGFR range of activity (IC50)
Chain of EGFR (P00533 25-1210): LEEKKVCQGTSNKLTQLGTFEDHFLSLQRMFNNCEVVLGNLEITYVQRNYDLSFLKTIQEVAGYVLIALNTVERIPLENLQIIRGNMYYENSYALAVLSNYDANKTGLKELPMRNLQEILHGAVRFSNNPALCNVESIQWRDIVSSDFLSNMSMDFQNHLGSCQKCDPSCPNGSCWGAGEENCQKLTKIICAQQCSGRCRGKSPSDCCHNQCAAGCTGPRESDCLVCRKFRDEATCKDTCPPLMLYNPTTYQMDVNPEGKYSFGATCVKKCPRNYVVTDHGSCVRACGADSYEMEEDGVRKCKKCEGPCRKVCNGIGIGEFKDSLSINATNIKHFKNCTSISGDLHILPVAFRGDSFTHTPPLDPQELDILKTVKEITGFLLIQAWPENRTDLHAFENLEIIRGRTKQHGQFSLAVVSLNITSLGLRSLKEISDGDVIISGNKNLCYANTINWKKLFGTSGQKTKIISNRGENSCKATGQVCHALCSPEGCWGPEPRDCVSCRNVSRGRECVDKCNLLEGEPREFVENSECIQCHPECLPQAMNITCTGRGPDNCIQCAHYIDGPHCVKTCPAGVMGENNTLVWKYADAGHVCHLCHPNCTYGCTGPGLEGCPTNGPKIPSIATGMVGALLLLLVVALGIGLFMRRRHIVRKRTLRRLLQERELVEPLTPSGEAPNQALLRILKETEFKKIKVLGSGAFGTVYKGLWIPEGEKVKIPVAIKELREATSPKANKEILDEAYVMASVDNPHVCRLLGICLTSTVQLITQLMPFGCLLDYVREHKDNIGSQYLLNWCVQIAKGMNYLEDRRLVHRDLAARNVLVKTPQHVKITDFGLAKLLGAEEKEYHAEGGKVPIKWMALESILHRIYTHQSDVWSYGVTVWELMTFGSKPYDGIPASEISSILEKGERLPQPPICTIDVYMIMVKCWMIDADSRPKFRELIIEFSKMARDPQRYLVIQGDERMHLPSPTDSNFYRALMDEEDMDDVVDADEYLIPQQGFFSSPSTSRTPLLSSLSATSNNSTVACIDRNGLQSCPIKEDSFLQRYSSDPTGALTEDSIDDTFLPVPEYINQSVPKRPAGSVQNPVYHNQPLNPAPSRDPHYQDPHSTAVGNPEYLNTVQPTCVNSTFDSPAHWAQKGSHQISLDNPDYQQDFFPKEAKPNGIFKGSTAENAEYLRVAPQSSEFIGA

C-MET = C-MET (Homo sapiens (Human), UniProt P08581); experiment: Kinase inhibition, Mobility-Shift Assay; format: biochemical; settings: class; read-out: C-MET range of activity (IC50)
Chain of C-MET (P08581 25-1390): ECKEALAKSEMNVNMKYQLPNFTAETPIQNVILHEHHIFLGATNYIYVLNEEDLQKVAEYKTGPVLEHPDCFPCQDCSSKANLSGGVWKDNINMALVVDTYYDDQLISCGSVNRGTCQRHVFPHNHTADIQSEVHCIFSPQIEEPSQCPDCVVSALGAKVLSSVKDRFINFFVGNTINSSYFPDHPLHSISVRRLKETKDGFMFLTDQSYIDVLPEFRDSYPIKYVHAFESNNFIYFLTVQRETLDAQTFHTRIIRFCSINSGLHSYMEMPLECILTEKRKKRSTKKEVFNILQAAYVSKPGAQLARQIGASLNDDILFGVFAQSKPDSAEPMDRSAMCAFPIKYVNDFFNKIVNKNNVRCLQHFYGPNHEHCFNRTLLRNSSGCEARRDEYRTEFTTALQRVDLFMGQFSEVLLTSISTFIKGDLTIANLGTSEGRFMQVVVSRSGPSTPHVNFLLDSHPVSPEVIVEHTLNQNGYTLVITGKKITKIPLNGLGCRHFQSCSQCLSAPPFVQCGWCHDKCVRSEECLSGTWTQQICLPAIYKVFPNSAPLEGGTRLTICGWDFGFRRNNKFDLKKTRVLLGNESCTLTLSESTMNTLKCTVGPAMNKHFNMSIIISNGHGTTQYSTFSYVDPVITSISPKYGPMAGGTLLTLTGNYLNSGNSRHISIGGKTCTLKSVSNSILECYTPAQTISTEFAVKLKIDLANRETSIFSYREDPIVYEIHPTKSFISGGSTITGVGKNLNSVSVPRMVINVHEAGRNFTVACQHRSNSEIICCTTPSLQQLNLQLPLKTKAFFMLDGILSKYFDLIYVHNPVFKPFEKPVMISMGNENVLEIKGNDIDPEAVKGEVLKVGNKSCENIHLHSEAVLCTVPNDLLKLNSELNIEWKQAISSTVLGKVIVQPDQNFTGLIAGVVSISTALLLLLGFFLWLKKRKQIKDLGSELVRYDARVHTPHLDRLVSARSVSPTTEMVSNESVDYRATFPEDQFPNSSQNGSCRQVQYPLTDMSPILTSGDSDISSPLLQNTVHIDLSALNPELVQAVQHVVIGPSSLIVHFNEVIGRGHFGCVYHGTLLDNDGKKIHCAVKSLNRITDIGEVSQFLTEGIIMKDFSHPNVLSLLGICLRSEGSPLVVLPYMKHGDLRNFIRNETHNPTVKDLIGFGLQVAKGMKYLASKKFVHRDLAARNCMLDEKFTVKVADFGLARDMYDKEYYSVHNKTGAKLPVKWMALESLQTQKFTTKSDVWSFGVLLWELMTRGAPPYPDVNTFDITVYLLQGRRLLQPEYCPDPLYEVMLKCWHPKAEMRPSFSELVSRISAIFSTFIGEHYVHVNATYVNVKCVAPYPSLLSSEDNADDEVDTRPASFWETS

For `COc1cc2nccc(Oc3c(F)cc(NC(=O)NC4CC4)c(OC)c3F)c2cc1C(N)=O` [III-40], the IC50 [1] was > 5000 nM, the IC50 [2] was > 1000 nM and the IC50 [3] was > 10000 nM. For the same compound, the IC50 [4] was > 10000 nM, the IC50 [5] was > 10000 nM and the IC50 (VEGFR-2 (KDR)) was > 10 nM. For the same compound, the IC50 (FGFR2) was > 100 nM, the IC50 (FGFR4) was > 100 nM and the IC50 (EGFR) was > 100 nM. For the same compound, the IC50 (C-MET) was > 100 nM.

With `COc1cc2nccc(Oc3c(F)cc(NC(=O)NC4CC4)c(Cl)c3OC)c2cc1C(N)=O` [III-41] the IC50 [1] was > 5000 nM, the IC50 [2] was > 1000 nM and the IC50 [3] was > 10000 nM. For the same compound, the IC50 [4] was > 10000 nM, the IC50 [5] was > 10000 nM and the IC50 (VEGFR-2 (KDR)) was > 10 nM. For the same compound, the IC50 (FGFR2) was > 100 nM, the IC50 (FGFR4) was > 100 nM and the IC50 (EGFR) was > 100 nM. For the same compound, the IC50 (C-MET) was > 100 nM.

For `COc1cc2nccc(Oc3c(F)cc(NC(=O)NC4CC4)c(Cl)c3OC(C)C)c2cc1C(N)=O` [III-42], the IC50 [1] was > 5000 nM, the IC50 [2] was > 1000 nM and the IC50 [3] was > 10000 nM. For the same compound, the IC50 [4] was > 10000 nM, the IC50 [5] was > 10000 nM and the IC50 (VEGFR-2 (KDR)) was > 10 nM. The IC50 (FGFR2) was > 100 nM, the IC50 (FGFR4) was > 100 nM and the IC50 (EGFR) was > 100 nM. For the same compound, the IC50 (C-MET) was > 100 nM.

In the case of `[2H]C([2H])([2H])Oc1c(Cl)c(NC(=O)NC2CC2)cc(F)c1Oc1ccnc2cc(OC)c(C(N)=O)cc12` [III-43], the IC50 [1] is reported as > 5000 nM, the IC50 [2] is reported as > 1000 nM and the IC50 [3] is reported as > 10000 nM. The IC50 [4] was > 10000 nM, the IC50 [5] was > 10000 nM and the IC50 (VEGFR-2 (KDR)) was > 10 nM. The IC50 (FGFR2) was > 100 nM, the IC50 (FGFR4) was > 100 nM and the IC50 (EGFR) was > 100 nM. For the same compound, the IC50 (C-MET) was > 100 nM.

`COc1cc2nccc(Oc3c(F)cc(NC(=O)NC4CC4)c(Cl)c3OCC(F)F)c2cc1C(N)=O` [III-44] was tested, and the IC50 [1] was > 5000 nM, the IC50 [2] was > 1000 nM and the IC50 [3] was > 10000 nM. The IC50 [4] was > 10000 nM, the IC50 [5] was > 10000 nM and the IC50 (VEGFR-2 (KDR)) was > 10 nM. The IC50 (FGFR2) was > 100 nM, the IC50 (FGFR4) was > 100 nM and the IC50 (EGFR) was > 100 nM. The IC50 (C-MET) was > 100 nM.

In the case of `COc1cc2nccc(Oc3c(F)cc(NC(=O)NC4CC4)c(Cl)c3OC3CC3)c2cc1C(N)=O` [III-45], the IC50 [1] is reported as > 5000 nM, the IC50 [2] is reported as > 1000 nM and the IC50 [3] is reported as > 10000 nM. For the same compound, the IC50 [4] was > 10000 nM, the IC50 [5] was > 10000 nM and the IC50 (VEGFR-2 (KDR)) was > 10 nM. For the same compound, the IC50 (FGFR2) was > 100 nM, the IC50 (FGFR4) was > 100 nM and the IC50 (EGFR) was > 100 nM. For the same compound, the IC50 (C-MET) was > 100 nM.

In the case of `COc1cc2nccc(Oc3c(F)cc(NC(=O)NC4CC4)c(N(C)C)c3F)c2cc1C(N)=O` [III-46], the IC50 [1] is reported as > 5000 nM, the IC50 [2] is reported as > 1000 nM and the IC50 [3] is reported as > 10000 nM. The IC50 [4] was > 10000 nM, the IC50 [5] was > 10000 nM and the IC50 (VEGFR-2 (KDR)) was > 10 nM. For the same compound, the IC50 (FGFR2) was > 100 nM, the IC50 (FGFR4) was > 100 nM and the IC50 (EGFR) was > 100 nM. For the same compound, the IC50 (C-MET) was > 100 nM.

In the case of `COc1cc2nccc(Oc3c(F)cc(NC(=O)NC4CC4)c(Cl)c3OCC(F)(F)F)c2cc1C(N)=O` [III-47], the IC50 [1] is reported as > 5000 nM, the IC50 [2] is reported as > 1000 nM and the IC50 [3] is reported as > 10000 nM. The IC50 [4] was > 10000 nM, the IC50 [5] was > 10000 nM and the IC50 (VEGFR-2 (KDR)) was > 10 nM. The IC50 (FGFR2) was > 100 nM, the IC50 (FGFR4) was > 100 nM and the IC50 (EGFR) was > 100 nM. For the same compound, the IC50 (C-MET) was > 100 nM.

With `COc1cc2nccc(Oc3c(F)cc(NC(=O)NC4CC4)c(Cl)c3N(C)C3CC3)c2cc1C(N)=O` [III-48] the IC50 [1] was > 5000 nM, the IC50 [2] was > 1000 nM and the IC50 [3] was > 10000 nM. For the same compound, the IC50 [4] was > 10000 nM, the IC50 [5] was > 10000 nM and the IC50 (VEGFR-2 (KDR)) was > 10 nM. For the same compound, the IC50 (FGFR2) was > 100 nM, the IC50 (FGFR4) was > 100 nM and the IC50 (EGFR) was > 100 nM. The IC50 (C-MET) was > 100 nM.

With `COc1cc2nccc(Oc3c(F)cc(NC(=O)NC4CC4)c(Cl)c3N(C)C)c2cc1C(N)=O` [III-49] the IC50 [1] was > 5000 nM, the IC50 [2] was > 1000 nM and the IC50 [3] was > 10000 nM. For the same compound, the IC50 [4] was > 10000 nM, the IC50 [5] was > 10000 nM and the IC50 (VEGFR-2 (KDR)) was > 10 nM. The IC50 (FGFR2) was > 100 nM, the IC50 (FGFR4) was > 100 nM and the IC50 (EGFR) was > 100 nM. The IC50 (C-MET) was > 100 nM.

For `COc1cc2nccc(Oc3c(F)c(F)c(NC(=O)NC4CC4)c(N(C)C)c3F)c2cc1C(N)=O` [III-50], the IC50 [1] was > 5000 nM, the IC50 [2] was > 1000 nM and the IC50 [3] was > 10000 nM. For the same compound, the IC50 [4] was > 10000 nM, the IC50 [5] was > 10000 nM and the IC50 (VEGFR-2 (KDR)) was > 10 nM. The IC50 (FGFR2) was > 100 nM, the IC50 (FGFR4) was > 100 nM and the IC50 (EGFR) was > 100 nM. For the same compound, the IC50 (C-MET) was > 100 nM.

For `COc1cc2nccc(Oc3c(F)c(F)c(NC(=O)NC4CC4)c(OC)c3F)c2cc1C(N)=O` [III-51], the IC50 [1] was > 5000 nM, the IC50 [2] was > 1000 nM and the IC50 [3] was > 10000 nM. For the same compound, the IC50 [4] was > 10000 nM, the IC50 [5] was > 10000 nM and the IC50 (VEGFR-2 (KDR)) was > 10 nM. For the same compound, the IC50 (FGFR2) was > 100 nM, the IC50 (FGFR4) was > 100 nM and the IC50 (EGFR) was > 100 nM. The IC50 (C-MET) was > 100 nM.
